# Assays:
# Adenosine receptor A3 [1] = molecular target: T1, Adenosine receptor A3 (Mus musculus, UniProt Q61618); assay: Binding affinity to mouse adenosine A3 receptor expressed in HEK293 cells measured by radioligand binding assay; assay type: cell-based
# T1 sequence (Q61618 whole entry): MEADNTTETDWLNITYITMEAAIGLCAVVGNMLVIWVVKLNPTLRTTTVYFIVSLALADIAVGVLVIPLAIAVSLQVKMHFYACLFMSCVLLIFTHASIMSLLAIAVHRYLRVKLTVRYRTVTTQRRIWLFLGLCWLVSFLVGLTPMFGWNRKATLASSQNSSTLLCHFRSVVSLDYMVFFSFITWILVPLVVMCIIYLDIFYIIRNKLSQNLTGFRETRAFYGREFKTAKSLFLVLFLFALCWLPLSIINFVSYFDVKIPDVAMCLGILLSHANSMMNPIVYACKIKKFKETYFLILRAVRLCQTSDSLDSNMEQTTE
# Adenosine receptor A3 [2] = molecular target: T2, Adenosine receptor A3 (Rattus norvegicus, UniProt P28647); assay: Binding affinity to rat adenosine A3 receptor expressed in HEK293 cells measured by radioligand binding assay; assay type: cell-based
# T2 sequence (P28647 whole entry): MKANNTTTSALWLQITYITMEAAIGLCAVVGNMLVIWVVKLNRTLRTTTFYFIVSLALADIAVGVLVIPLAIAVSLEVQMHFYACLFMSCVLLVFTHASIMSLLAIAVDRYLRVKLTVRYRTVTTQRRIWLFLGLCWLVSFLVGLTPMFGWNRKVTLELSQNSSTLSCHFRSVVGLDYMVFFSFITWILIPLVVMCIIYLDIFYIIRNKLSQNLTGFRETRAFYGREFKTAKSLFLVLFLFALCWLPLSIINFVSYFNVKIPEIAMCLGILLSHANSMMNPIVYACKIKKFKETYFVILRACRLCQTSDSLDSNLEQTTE
# Adenosine receptor A3 [3] = molecular target: T3, Adenosine receptor A3 (Homo sapiens, UniProt P0DMS8); assay type: cell-based, HEK293
# T3 sequence (P0DMS8 whole entry): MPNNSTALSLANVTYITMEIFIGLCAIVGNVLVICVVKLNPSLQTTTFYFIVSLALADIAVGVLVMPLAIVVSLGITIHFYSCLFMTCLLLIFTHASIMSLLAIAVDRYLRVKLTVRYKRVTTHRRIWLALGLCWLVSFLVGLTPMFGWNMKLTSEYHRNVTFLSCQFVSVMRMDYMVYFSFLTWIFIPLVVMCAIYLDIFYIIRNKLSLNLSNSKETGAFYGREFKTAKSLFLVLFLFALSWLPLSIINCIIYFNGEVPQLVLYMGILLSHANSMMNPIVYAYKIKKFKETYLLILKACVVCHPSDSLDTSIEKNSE
# Adenosine receptor A2a [4] = molecular target: T4, Adenosine receptor A2a (Homo sapiens, UniProt P29274); assay: Displacement of [3H] ZM241385 from human adenosine A2A receptor expressed in HEK293 cells at 10 uM incubated for 60 mins by radioligand binding assay; assay type: cell-based
# [5] = molecular target: T5, Adenosine receptor A1 (Homo sapiens) (UniProt P30542); assay: Displacement of [3H] DPCPX from human adenosine A1 receptor expressed in HEK293 cells at 10 uM incubated for 60 mins by radioligand binding assay; assay type: cell-based
# T5 sequence (whole entry): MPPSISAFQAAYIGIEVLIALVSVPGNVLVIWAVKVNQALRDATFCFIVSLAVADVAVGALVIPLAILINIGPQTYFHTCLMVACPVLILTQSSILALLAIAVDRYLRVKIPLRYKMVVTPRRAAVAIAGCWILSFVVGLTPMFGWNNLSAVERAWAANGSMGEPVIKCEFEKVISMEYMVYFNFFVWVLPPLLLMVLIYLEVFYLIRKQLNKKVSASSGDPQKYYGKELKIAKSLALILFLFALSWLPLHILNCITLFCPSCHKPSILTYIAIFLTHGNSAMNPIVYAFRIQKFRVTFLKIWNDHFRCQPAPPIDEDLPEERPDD
# Adenosine receptor A3 [6] = molecular target: T1, Adenosine receptor A3; assay type: cell-based, HEK293
# [7] = molecular target: Adenosine receptor A2a (Mus musculus) (UniProt Q60613); assay: Displacement of [3H] ZM241385 from mouse adenosine A2A receptor expressed in HEK293 cells at 10 uM incubated for 60 mins by radioligand binding assay; assay type: cell-based
# Adenosine receptor A1 [8] = molecular target: T6, Adenosine receptor A1 (Mus musculus, UniProt Q60612); assay: Displacement of [3H] DPCPX from mouse adenosine A1 receptor expressed in HEK293 cells incubated for 60 mins by radioligand binding assay; assay type: cell-based
# T6 sequence (Q60612 whole entry): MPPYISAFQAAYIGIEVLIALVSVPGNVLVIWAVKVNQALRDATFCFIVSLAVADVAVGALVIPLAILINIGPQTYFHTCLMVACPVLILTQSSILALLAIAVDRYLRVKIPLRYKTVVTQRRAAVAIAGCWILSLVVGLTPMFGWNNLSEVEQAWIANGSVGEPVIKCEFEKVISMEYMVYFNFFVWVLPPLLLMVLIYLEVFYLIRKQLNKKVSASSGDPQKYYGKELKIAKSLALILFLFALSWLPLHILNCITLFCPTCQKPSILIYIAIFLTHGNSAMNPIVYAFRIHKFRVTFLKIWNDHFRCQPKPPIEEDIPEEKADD
# Adenosine receptor A1 [9] = molecular target: T7, Adenosine receptor A1 (Homo sapiens, UniProt P30542); assay: Displacement of [3H] DPCPX from human adenosine A1 receptor expressed in HEK293 cells incubated for 60 mins by radioligand binding assay; assay type: cell-based
# T7 sequence (P30542 whole entry): T5 sequence (whole entry)
# Adenosine receptor A3 [10] = molecular target: T2, Adenosine receptor A3; assay: Binding affinity to rat adenosine A3 receptor measured by radioligand binding assay
# Adenosine receptor A3 [11] = molecular target: T1, Adenosine receptor A3; assay: Binding affinity to mouse adenosine A3 receptor measured by radioligand binding assay
# [12] = molecular target: Sigma intracellular receptor 2 (Homo sapiens, UniProt Q5BJF2); assay: Binding affinity to human sigma2 receptor by radioligand binding assay
# Translocator protein = Translocator protein (Homo sapiens, UniProt P30536); assay: Binding affinity to human TSPO receptor by radioligand binding assay
# D(3) dopamine receptor = D(3) dopamine receptor (Homo sapiens, UniProt P35462); assay: Binding affinity to human D3 receptor by radioligand binding assay
# D(4) dopamine receptor = D(4) dopamine receptor (Homo sapiens, UniProt P21917); assay: Binding affinity to human D4 receptor by radioligand binding assay
# Adenosine receptor A2a [13] = molecular target: T4, Adenosine receptor A2a; assay: Displacement of [3H] ZM241385 from human adenosine A2A receptor expressed in HEK293 cells incubated for 60 mins by radioligand binding assay; assay type: cell-based
# T4 sequence (P29274 whole entry): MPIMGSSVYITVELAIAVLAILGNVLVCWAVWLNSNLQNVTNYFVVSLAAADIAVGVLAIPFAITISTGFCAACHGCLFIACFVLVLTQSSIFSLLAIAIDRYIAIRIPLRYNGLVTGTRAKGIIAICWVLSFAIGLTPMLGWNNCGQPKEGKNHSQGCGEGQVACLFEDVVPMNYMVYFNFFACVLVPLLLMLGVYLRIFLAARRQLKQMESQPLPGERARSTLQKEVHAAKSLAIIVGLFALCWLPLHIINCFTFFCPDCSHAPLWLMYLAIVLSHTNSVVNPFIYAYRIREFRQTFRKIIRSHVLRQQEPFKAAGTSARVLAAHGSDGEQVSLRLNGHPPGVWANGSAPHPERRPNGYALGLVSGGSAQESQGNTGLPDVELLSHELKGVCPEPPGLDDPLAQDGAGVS
# Sequence of Adenosine receptor A2a (Mus musculus) (Q60613 whole entry): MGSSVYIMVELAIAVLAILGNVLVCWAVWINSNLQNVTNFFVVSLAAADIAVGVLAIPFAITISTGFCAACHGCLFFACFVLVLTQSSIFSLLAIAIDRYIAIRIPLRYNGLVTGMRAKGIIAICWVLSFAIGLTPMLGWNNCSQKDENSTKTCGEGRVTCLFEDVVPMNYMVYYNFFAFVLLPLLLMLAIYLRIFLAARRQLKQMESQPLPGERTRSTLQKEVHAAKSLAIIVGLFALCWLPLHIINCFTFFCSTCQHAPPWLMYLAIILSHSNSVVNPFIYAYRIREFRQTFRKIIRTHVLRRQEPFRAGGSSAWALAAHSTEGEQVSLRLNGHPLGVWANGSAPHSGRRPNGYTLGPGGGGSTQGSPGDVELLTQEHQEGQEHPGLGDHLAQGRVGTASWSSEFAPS
# Sequence of D(3) dopamine receptor (P35462 whole entry): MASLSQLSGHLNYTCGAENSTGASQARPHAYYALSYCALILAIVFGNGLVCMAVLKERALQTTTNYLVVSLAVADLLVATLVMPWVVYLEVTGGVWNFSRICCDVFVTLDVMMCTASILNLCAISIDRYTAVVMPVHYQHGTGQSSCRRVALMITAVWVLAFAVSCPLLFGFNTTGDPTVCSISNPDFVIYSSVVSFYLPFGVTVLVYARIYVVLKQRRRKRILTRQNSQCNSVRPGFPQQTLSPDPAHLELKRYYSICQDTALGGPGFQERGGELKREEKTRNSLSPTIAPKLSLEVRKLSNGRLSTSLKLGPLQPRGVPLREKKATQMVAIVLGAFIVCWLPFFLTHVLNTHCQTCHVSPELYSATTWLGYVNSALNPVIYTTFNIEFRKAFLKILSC
# Sequence of Translocator protein (P30536 whole entry): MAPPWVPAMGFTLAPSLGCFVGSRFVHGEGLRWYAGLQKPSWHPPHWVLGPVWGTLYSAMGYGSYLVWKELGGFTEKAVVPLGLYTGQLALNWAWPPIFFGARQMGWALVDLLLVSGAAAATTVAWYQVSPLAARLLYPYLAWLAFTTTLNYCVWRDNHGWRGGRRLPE
# Sequence of D(4) dopamine receptor (P21917 whole entry): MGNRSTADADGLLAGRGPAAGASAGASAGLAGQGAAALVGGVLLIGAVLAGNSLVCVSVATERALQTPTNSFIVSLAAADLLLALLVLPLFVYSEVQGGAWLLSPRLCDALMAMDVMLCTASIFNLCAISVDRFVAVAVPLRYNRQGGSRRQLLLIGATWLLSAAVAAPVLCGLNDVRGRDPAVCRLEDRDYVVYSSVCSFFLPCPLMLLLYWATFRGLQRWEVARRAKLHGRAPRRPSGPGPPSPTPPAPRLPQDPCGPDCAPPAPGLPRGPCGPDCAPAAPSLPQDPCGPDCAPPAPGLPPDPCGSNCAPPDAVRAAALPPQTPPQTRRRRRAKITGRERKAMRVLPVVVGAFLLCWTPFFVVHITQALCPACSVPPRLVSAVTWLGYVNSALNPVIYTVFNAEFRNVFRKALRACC
# Sequence of Sigma intracellular receptor 2 (Q5BJF2 whole entry): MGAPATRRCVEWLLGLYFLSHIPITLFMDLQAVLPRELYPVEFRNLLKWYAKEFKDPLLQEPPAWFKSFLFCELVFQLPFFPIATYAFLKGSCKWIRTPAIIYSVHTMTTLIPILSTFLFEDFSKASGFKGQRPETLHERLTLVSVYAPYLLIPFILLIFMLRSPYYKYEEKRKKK
Ki (Adenosine receptor A3 [3]) [nM],inhibition (Adenosine receptor A2a [4]) [%],inhibition [5] [%],Ki (Adenosine receptor A3 [6]) [nM],inhibition [7] [%],Ki (Adenosine receptor A1 [8]) [nM],Ki (Adenosine receptor A1 [9]) [nM],SMILES,also measured
,,,,,,,[3H]c1cncc(C(=O)Nc2nc(-c3cc(C)cc(C)c3)c(-c3ccncc3)s2)c1,Kd (Adenosine receptor A3 [1]): 3.74 nM; Kd (Adenosine receptor A3 [2]): 2.8 nM
80.7,-0.5,21,,,,,Cc1cc(C#Cc2ccc(Cl)s2)cc(-c2nc(NC(=O)c3cccnc3)sc2-c2ccncc2)c1,
6.34,-7.3,,22.3,29,252,1450,Cc1cc(Br)cc(-c2nc(NC(=O)c3cccnc3)sc2-c2ccncc2)c1,
,,,,,,,CCCn1cc2c(nc(NC(=O)Nc3ccc(OC)cc3)n3nc(-c4ccco4)nc23)n1,Ki (Adenosine receptor A3 [10]): > 10000 nM; Ki (Adenosine receptor A3 [11]): > 10000 nM
6.12,,,12.4,7.4,2640,8770,Cc1cc(I)cc(-c2nc(NC(=O)c3cccnc3)sc2-c2ccncc2)c1,Ki [12]: 3690 nM; Ki (Translocator protein): 1330 nM; Ki (D(3) dopamine receptor): 340 nM; Ki (D(4) dopamine receptor): 1240 nM
26.6,,38,,,,,Cc1cc(C)cc(-c2nc(NC(=O)c3cncc(Br)c3)sc2-c2ccncc2)c1,Ki (Adenosine receptor A2a [13]): > 1000 nM

# — ChEMBL document CHEMBL5038675, “Selective A3 Adenosine Receptor Antagonist Radioligand for Human and Rodent Species” (ACS Med Chem Lett, 2022)
